# From US20200345725A1, “Methods and Compositions for Treating Cancer” (Omeros Corporation, priority 2019, published 2020)
# Marks after values point to notes of the source that are not given here.
# What was measured:
# [1] = biological target: T1, ADBR2 (Homo sapiens, UniProt P07550); assay: CRE-Luc reporter assay with control receptor ADBR2; format: cell-based
# T1 construct: host or cells: HEK293 or CHO cell lines (ATCC)
# [2] = test system: human PBMCs; assay: Th1 cytokines in supernatants of stimulated human PBMC, GPR174 inhibitor with adenosine pathway inhibitors (Examples 15, 18-22); format: cell-based; conditions: for IFN-γ fold increase (FIG. 44): Example 15; for IFN-γ, ratio relative to vehicle control (Veh column) / IL-2, ratio relative to vehicle control (Veh column) / TNF, ratio relative to vehicle control (Veh column): Cmpd 10 1, ZM 0.1, PBF 0.1, SCH 0.2 μM, ADA 0.75 μg/mL; for IFN-γ, ratio relative to vehicle control (MRS) / IL-2, ratio relative to vehicle control (MRS column) / TNF, ratio relative to vehicle control (MRS column): MRS-1754 1 μM added to the agent(s) of the label, label MRS = MRS alone
# Procedure, shortened: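 Human donor PBMCs (1×10^6 cells/well) were stimulated with 1 µg/mL anti-CD3 (UCHT1) plus 0.1 µg/mL anti-CD28 (CD28.2) for 24 h with test agents. IFN-γ, IL-2, TNF and GM-CSF in supernatants were measured by ELISA, Legendplex or MSD. Fold changes were compared by one-way ANOVA with Tukey correction.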
# [3] = 12 donors, Cmpd 10 1-2 μM, ZM 0.2-1 μM
# [4] = 12 donors, Cmpd 10 1-2 μM, ZM 0.2-1 μM, 24 h
# [5] = donor 1, 24 h, Cmp 10 2 μM alone
# [6] = donor 1, 24 h, Cmp 10 2 μM alone, listed as Cmp 10
# [7] = donor 1, SCH-58261 0.2 μM, alone (label SCH) or with Cmp 10 2 μM (label Cmp 10)
# [8] = donor 1, SCH-58261 0.6 μM, alone (label SCH) or with Cmp 10 2 μM (label Cmp 10)
# [9] = donor 1, SCH-58261 2 μM, alone (label SCH) or with Cmp 10 2 μM (label Cmp 10)
# [10] = donor 2, Cmpd 10 1 μM alone, listed as Cmpd 10
# [11] = donor 2, PBF-509 0.1 μM, alone (label PBF) or with Cmpd 10 1 μM (label Cmpd 10)
# [12] = donor 2, PBF-509 0.1 μM, alone (label PBF) or with Cmpd 10 1 μM (label Cmpd 10), listed as Cmpd 10
# [13] = donor 2, ZM-241385 0.2 μM, alone (label ZM) or with Cmpd 10 1 μM (label Cmpd 10)
# [14] = donor 2, ZM-241385 0.2 μM, alone (label ZM) or with Cmpd 10 1 μM (label Cmpd 10), listed as Cmpd 10
# [15] = donor 3, no MRS, listed as Cmpd 10
# [16] = donor 3, PBF-509 0.2 μM, alone (label PBF) or with Cmpd 10 1 μM (label Cmpd 10)
# [17] = donor 3, PBF-509 0.2 μM, alone (label PBF) or with Cmpd 10 1 μM (label Cmpd 10), listed as Cmpd 10
# [18] = donor 3, ZM-241385 0.2 μM, alone (label ZM) or with Cmpd 10 1 μM (label Cmpd 10)
# [19] = donor 3, ZM-241385 0.2 μM, alone (label ZM) or with Cmpd 10 1 μM (label Cmpd 10), listed as Cmpd 10
# [20] = donor 6, no MRS, listed as Cmpd 10
# [21] = donor 7, high and low concentrations, ZM 0.1 μM
# [22] = donor 7, no ZM, 0.3 μM (compound 20: 3 μM)
# [23] = donor 7, no ZM, 1 μM (compound 20: 10 μM)
# [24] = donor 7, with ZM-241385 0.1 μM, 0.3 μM (compound 20: 3 μM)
# [25] = donor 7, with ZM-241385 0.1 μM, 1 μM (compound 20: 10 μM), label ZM = ZM alone
# T1 sequence (P07550 whole entry): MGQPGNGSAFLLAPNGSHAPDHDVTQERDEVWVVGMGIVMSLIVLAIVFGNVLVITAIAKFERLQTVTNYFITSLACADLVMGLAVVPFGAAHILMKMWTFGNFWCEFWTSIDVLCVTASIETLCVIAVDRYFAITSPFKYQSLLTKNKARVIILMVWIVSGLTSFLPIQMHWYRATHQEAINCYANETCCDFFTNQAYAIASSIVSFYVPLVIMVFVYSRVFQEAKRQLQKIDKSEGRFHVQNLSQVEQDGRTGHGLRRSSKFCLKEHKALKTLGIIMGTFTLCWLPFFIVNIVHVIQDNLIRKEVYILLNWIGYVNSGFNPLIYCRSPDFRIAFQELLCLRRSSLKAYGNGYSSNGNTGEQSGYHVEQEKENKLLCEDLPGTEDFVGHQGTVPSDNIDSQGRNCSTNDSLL
structure (smiles),measurement,setting,value
CC1CCN(c2cc(N3CCN(S(=O)(=O)c4ccccc4)CC3)c([N+](=O)[O-])cc2F)CC1 [compound 10],Gs pathway in the presence of ADBR2 (CRE-Luc reporter),[1],did not inhibit
same,GM-CSF fold-change (FC) vs ZM alone,"[2]; 9 donors, Cmpd 10 1-2 μM, ZM 0.2-1 μM",1.1 fold
same,GM-CSF mean fold-change (FC) vs vehicle,"[2]; 9 donors, Cmpd 10 1-2 μM, ZM 0.2-1 μM, 24 h",1.4 fold
same,IFN-γ fold-change (FC) vs ZM alone,[2]; [3],1.3 fold
same,IL-2 fold-change (FC) vs ZM alone,[2]; [3],1.2 fold
same,TNF fold-change (FC) vs ZM alone,[2]; [3],1.3 fold
same,IFN-γ mean fold-change (FC) vs vehicle,[2]; [4],2.8 fold
same,IL-2 mean fold-change (FC) vs vehicle,[2]; [4],1.7 fold
same,TNF mean fold-change (FC) vs vehicle,[2]; [4],2.7 fold
same,IFN-γ fold increase (FIG. 44),"[2]; 24 h, ZM241385 1 μM, alone (label ZM241385) or with compound 10 3 μM (label compound 10)",9.3 fold
same,IFN-γ fold increase (FIG. 44),"[2]; 24 h, ZM241385 10 μM, alone (label ZM241385) or with compound 10 3 μM (label compound 10)",17.1 fold
same,IFN-γ fold increase (FIG. 44),"[2]; 24 h, compound 10 3 μM alone",2.3 fold
same,IFN-γ fold-change relative to vehicle control,[2]; [5],4.9 fold
same,IL-2 fold-change relative to vehicle control,[2]; [5],no effect
same,TNF fold-change relative to vehicle control,[2]; [5],4.2 fold
same,IFN-γ fold-change relative to vehicle control,[2]; [6],4.9* fold
same,IL-2 fold-change relative to vehicle control,[2]; [6],0.9 fold
same,TNF fold-change relative to vehicle control,[2]; [6],4.2* fold
same,IFN-γ fold-change relative to vehicle control,[2]; [7],11.8* fold
same,IL-2 fold-change relative to vehicle control,[2]; [7],1.5* fold
same,TNF fold-change relative to vehicle control,[2]; [7],14.2* fold
same,IFN-γ fold-change relative to vehicle control,[2]; [8],11.3* fold
same,IL-2 fold-change relative to vehicle control,[2]; [8],1.4* fold
same,TNF fold-change relative to vehicle control,[2]; [8],15.9* fold
same,IFN-γ fold-change relative to vehicle control,[2]; [9],11.0* fold
same,IL-2 fold-change relative to vehicle control,[2]; [9],1.4* fold
same,TNF fold-change relative to vehicle control,[2]; [9],14.7* fold
same,IFN-γ fold-change relative to vehicle control,"[2]; donor 2, Cmpd 10 1 μM alone",1.6 fold
same,IL-2 fold-change relative to vehicle control,"[2]; donor 2, Cmpd 10 1 μM alone",1.1 fold
same,TNF fold-change relative to vehicle control,"[2]; donor 2, Cmpd 10 1 μM alone",1.5 fold
same,IFN-γ fold-change relative to vehicle control,[2]; [10],1.6* fold
same,TNF fold-change relative to vehicle control,[2]; [10],1.5* fold
same,IFN-γ fold-change relative to vehicle control,[2]; [11],3.5 fold
same,IL-2 fold-change relative to vehicle control,[2]; [11],2.0 fold
same,TNF fold-change relative to vehicle control,[2]; [11],2.3 fold
same,IFN-γ fold-change relative to vehicle control,[2]; [12],3.5* fold
same,IL-2 fold-change relative to vehicle control,[2]; [12],2.0* fold
same,TNF fold-change relative to vehicle control,[2]; [12],2.3* fold
same,IFN-γ fold-change relative to vehicle control,[2]; [13],8.8 fold
same,IL-2 fold-change relative to vehicle control,[2]; [13],2.6 fold
same,TNF fold-change relative to vehicle control,[2]; [13],4.0 fold
same,IFN-γ fold-change relative to vehicle control,[2]; [14],8.8* fold
same,IL-2 fold-change relative to vehicle control,[2]; [14],2.6* fold
same,TNF fold-change relative to vehicle control,[2]; [14],4.0* fold
same,"IFN-γ, MRS/Veh: ratio in the presence vs. the absence of MRS-1754",[2]; donor 3,0.8*
same,"IL-2, MRS/Veh: ratio in the presence vs. the absence of MRS-1754",[2]; donor 3,1.5*
same,"TNF, MRS/Veh: ratio in the presence vs. the absence of MRS-1754",[2]; donor 3,1.1
same,"IFN-γ, ratio relative to vehicle control (Veh column)","[2]; donor 3, no MRS",2.8 fold
same,"IL-2, ratio relative to vehicle control (Veh column)","[2]; donor 3, no MRS",2.9 fold
same,"TNF, ratio relative to vehicle control (Veh column)","[2]; donor 3, no MRS",4.1 fold
same,"IFN-γ, ratio relative to vehicle control (Veh column)",[2]; [15],2.8* fold
same,"IL-2, ratio relative to vehicle control (Veh column)",[2]; [15],2.9* fold
same,"TNF, ratio relative to vehicle control (Veh column)",[2]; [15],4.1* fold
same,IFN-γ fold-change relative to vehicle control,"[2]; donor 3, Cmpd 10 1 μM alone",1.2 fold
same,IL-2 fold-change relative to vehicle control,"[2]; donor 3, Cmpd 10 1 μM alone",1.1 fold
same,TNF fold-change relative to vehicle control,"[2]; donor 3, Cmpd 10 1 μM alone",1.5 fold
same,TNF fold-change relative to vehicle control,"[2]; donor 3, Cmpd 10 1 μM alone, listed as Cmpd 10",1.5* fold
same,"IFN-γ, ratio relative to vehicle control (MRS)",[2]; donor 3,2.2* fold
same,"IL-2, ratio relative to vehicle control (MRS column)",[2]; donor 3,4.3 fold
same,"TNF, ratio relative to vehicle control (MRS column)",[2]; donor 3,4.6* fold
same,"IL-2, ratio relative to vehicle control (MRS column)","[2]; donor 3, listed as Cmpd 10",4.3* fold
same,IFN-γ fold-change relative to vehicle control,[2]; [16],1.8 fold
same,IL-2 fold-change relative to vehicle control,[2]; [16],1.6 fold
same,TNF fold-change relative to vehicle control,[2]; [16],2.9 fold
same,IFN-γ fold-change relative to vehicle control,[2]; [17],1.8* fold
same,IL-2 fold-change relative to vehicle control,[2]; [17],1.6* fold
same,TNF fold-change relative to vehicle control,[2]; [17],2.9* fold
same,IFN-γ fold-change relative to vehicle control,[2]; [18],2.5 fold
same,IL-2 fold-change relative to vehicle control,[2]; [18],2.3 fold
same,TNF fold-change relative to vehicle control,[2]; [18],4.6 fold
same,IFN-γ fold-change relative to vehicle control,[2]; [19],2.5* fold
same,IL-2 fold-change relative to vehicle control,[2]; [19],2.3* fold
same,TNF fold-change relative to vehicle control,[2]; [19],4.6* fold
same,"IFN-γ, MRS/Veh: ratio in the presence vs. the absence of MRS-1754",[2]; donor 6,1.1
same,"IL-2, MRS/Veh: ratio in the presence vs. the absence of MRS-1754",[2]; donor 6,1.4*
same,"TNF, MRS/Veh: ratio in the presence vs. the absence of MRS-1754",[2]; donor 6,1.4*
same,"IFN-γ, ratio relative to vehicle control (Veh column)","[2]; donor 6, no MRS",did not significantly increase
same,"IL-2, ratio relative to vehicle control (Veh column)","[2]; donor 6, no MRS",1.7 fold
same,"TNF, ratio relative to vehicle control (Veh column)","[2]; donor 6, no MRS",1.4 fold
same,"IFN-γ, ratio relative to vehicle control (Veh column)",[2]; [20],1.2 fold
same,"IL-2, ratio relative to vehicle control (Veh column)",[2]; [20],1.7* fold
same,"TNF, ratio relative to vehicle control (Veh column)",[2]; [20],1.4* fold
same,"IFN-γ, ratio relative to vehicle control (MRS)",[2]; donor 6,1.3* fold
same,"IL-2, ratio relative to vehicle control (MRS column)",[2]; donor 6,1.4 fold
same,"TNF, ratio relative to vehicle control (MRS column)",[2]; donor 6,2.1 fold
same,"IL-2, ratio relative to vehicle control (MRS column)","[2]; donor 6, listed as Cmpd 10",2.3* fold
same,"TNF, ratio relative to vehicle control (MRS column)","[2]; donor 6, listed as Cmpd 10",2.1* fold
same,synergy with ZM on GM-CSF (greater than the sum of the increases with each inhibitor alone),[2]; [21],synergized with ZM
same,synergy with ZM on IFN-γ (greater than the sum of the increases with each inhibitor alone),[2]; [21],synergized with ZM
same,synergy with ZM on IL-2 (greater than the sum of the increases with each inhibitor alone),[2]; [21],synergized with ZM
same,synergy with ZM on TNF (greater than the sum of the increases with each inhibitor alone),[2]; [21],synergized with ZM
same,"GM-CSF, ratio relative to vehicle control",[2]; [22],3.6*
same,"IFN-γ, ratio relative to vehicle control",[2]; [22],2.1*
same,"IL-2, ratio relative to vehicle control",[2]; [22],1.7*
same,"TNF, ratio relative to vehicle control",[2]; [22],2.2*
same,"GM-CSF, ratio relative to vehicle control",[2]; [23],3.1*
same,"IFN-γ, ratio relative to vehicle control",[2]; [23],2.2*
same,"IL-2, ratio relative to vehicle control",[2]; [23],1.6*
same,"TNF, ratio relative to vehicle control",[2]; [23],2.2*
same,"GM-CSF, ratio relative to vehicle control",[2]; [24],6.2*
same,"IFN-γ, ratio relative to vehicle control",[2]; [24],3.7*
same,"IL-2, ratio relative to vehicle control",[2]; [24],2.0*
same,"TNF, ratio relative to vehicle control",[2]; [24],3.6*
same,"GM-CSF, ratio relative to vehicle control",[2]; [25],5.9*
same,"IFN-γ, ratio relative to vehicle control",[2]; [25],3.7*
same,"IL-2, ratio relative to vehicle control",[2]; [25],2.2*
same,"TNF, ratio relative to vehicle control",[2]; [25],3.8*
